This note sets out measurements from patent publication EP0801071A1, “LEWIS X DERIVATIVE AND PROCESS FOR PRODUCING THE SAME” (SUMITOMO PHARMACEUTICALS COMPANY, LIMITED, priority 1994, dated 1996).

The target in assay [1] is T1, rsE-selectin (Homo sapiens, UniProt P16581).
T1 sequence (P16581 22-556 limits assumed): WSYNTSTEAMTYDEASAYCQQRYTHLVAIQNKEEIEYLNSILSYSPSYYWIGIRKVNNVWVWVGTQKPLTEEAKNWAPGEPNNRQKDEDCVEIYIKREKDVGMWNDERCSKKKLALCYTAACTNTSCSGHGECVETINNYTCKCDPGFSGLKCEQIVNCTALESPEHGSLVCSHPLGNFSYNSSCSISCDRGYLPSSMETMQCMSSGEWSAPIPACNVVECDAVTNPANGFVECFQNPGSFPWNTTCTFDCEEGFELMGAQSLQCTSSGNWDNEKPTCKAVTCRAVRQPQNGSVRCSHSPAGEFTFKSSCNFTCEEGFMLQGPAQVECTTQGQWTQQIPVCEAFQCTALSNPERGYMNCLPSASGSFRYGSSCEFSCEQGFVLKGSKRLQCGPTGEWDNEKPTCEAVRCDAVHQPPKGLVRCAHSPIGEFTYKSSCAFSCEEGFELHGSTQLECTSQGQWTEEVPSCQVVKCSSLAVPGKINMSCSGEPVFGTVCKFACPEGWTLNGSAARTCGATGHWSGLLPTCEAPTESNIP
As to the kind of experiment: Inhibition of adhesion of HL-60 cells to plate-coated rsE-selectin (Experiment 2). The assay is classed as cell-based. To be noted: 50% inhibition concentration of adhesion of rsE-selectin to HL-60, from inhibition curves; medium-only well = 100%. How it is done: The DPBS solution containing rsE-selectin (3 µg/ml) was added to a 96 well plate at 50 µl/well, while wells filled with DPBS without rsE-selectin (non-specific adhesion control) were prepared on the same plate, and the plate was kept at room temperature for 3 hours. Then wells were washed 3 times with a DPBS/BSA solution at 200 µl/well, and DPBS/BSA solution was added at 200 µl/well, and the plate was kept at room temperature for 1 hour. After removing DPBS/BSA solution, a medium containing NWB or NWB plus a compound of the invention was added at 40 µl/well.
Frozen HL-60 cells were thawed promptly at 37°C, and washed with NWB cooled to 4°C 3 times by centrifugation at 1500rpm × 5 min. The cells were adjusted with NWB to 1×10^7 cells/ml, added to the plate at 20 µl/well, and the plate was kept at room temperature for 15 min.
The plate was set on a plate washer to remove nonadhesive HL-60 cells. The plate washer was set at slow mode, cycle 3 (washing 3 times), soak 0 sec., 12 rows (along vertical direction), and volume of NWB for 1 washing 200 µl/well at room temperature.
A citrate solution containing 0.1% NP-40 at room temperature was added at 50 µl/well, and the plate was kept at room temperature for 5 minutes. The substrate solution (4 mg OPDA, 4µl 30% H2O2/4 ml citrate) was added at 50 µl/well, protected from light with aluminum foil, allowed to develop color for 5 to 20 minutes, and the reaction was terminated by adding 4N-H2SO4 at 50µl/well. The substrate solution was used within 30 minutes after preparation.
The OD490 of each well was determined, and the OD490 value of the well for nonspecific adhesion was subtracted from the value of each well. The value found in a well containing only the medium was used as a control (100%) and the amount of adhesion in wells containing Compounds (15), (31), (33)-(40) or (41) of the invention was calculated by percent in terms of the values of the control. By drawing inhibition curves, 50% inhibition concentration (IC50) was determined.
The materials for the experiment were obtained from the following sources. rsE-selectin: producible by the method described in J. C. Poulson, J. Am. Chem. Soc., 117: 66-79 (1995). The sample of rsE-selectin used in the experiments was kindly supplied by the author. HL-60 : ATCC Corp. DPBS (Dulbecco Phosphate Buffered Saline) : GIBCO Corp. BSA (Bovine Serum Albumin) : Sigma Corp. HBSS (Hanks Balanced Salt Solution) : GIBCO Corp. OPDA (Ortho-phenylenediamine) : Sigma Corp. RPMI 1640 medium : GIBCO Corp. Bovine Fetal Serum : GIBCO Corp. Plate : Immulon. 2. (flat bottomed) : Dynatech Laboratories. Plate washer; Microplate Washer : Molecular Devices Corp.
A compound of the present invention was adjusted to 100mM with DPBS, and pH was adjusted to 7.1-7.4.
HL-60 was cultured in RPMI 1640 medium supplemented with 10% Bovine Fetal Serum. Using a cell freezing solution consisting of 80% RPMI 1640 medium + 10% Bovine Fetal Serum + 10% DMSO, HL-60 was frozen at 1.5 × 10^7 cells per a tube according to a conventional method, and stocked at -80°C. This was used under sterile condition.
Composition of DPBS/BSA was DPBS + 1% BSA.
Composition of NWB was HBSS + 10mM-HEPES + 0.2%glucose + 1%BSA+ 1mM-CaCl2. These two solutions are prepared under sterile condition.
The citrate solution was prepared by dissolving 2.33 g of citric acid and 9.20 g of Na2HPO4·12H2O in 500 ml of desalted water.

Assay [2] deals with adhesion of HUVEC to neutrophils. The assay is described as follows: Inhibition of adhesion of neutrophils (treated with anti-CD18 antibody) to IL-1β-stimulated HUVEC (Experiment 1). It is filed as cell-based, human. The note with it: at a concentration of 0.05-0.5mM; wells without compound = 100%. The procedure:
To each well of a 96 well plate was added a PBS solution containing 0.1% gelatine at 50 µl/well, and after 15 minutes at room temperature, the solution was removed with a Pasteur pipette. On the coated 96 well plate, human umbilical vein endothelial cells (HUVEC, 5th generation) were cultured until confluent. The culture medium was removed with a Pasteur pipette and the MEM medium containing 45 U/ml of IL-1β was added at 100 µl/well, and incubated for 4 hours. On the same plate, wells containing the MEM medium without IL-1β were prepared and similarly incubated for 4 hours.
Blood was collected from a healthy human using heparin as an anticoagulant. In a 50 ml-tube was placed 15 ml of neutrophil·monocyte fraction, and 25 ml of whole blood was gently layered. The brake function was released and centrifuged at 1700 rpm for 30 minutes at room temperature, and the neutrophil layer was collected and transferred into a 50 ml tube containing 30 ml of HBSS solution. The brake function was recovered and centrifuged at 3000 rpm for 3 minutes at room temperature, the supernatant was removed, and 30 ml of HBSS was added for resuspension. This procedure was repeated twice. The neutrophils were counted using hemocytometer, adjusted to 5×10^6 cells/ml with the HBSS solution, charged in a 15 ml tube, mixed with anti-CD18 antibody at final concentration of 10 µg/ml, and incubated for 1 hour with occasional gentle swirling.
MEM medium was removed from the HUVEC plate with a Pasteur pipette, a compound of the present invention diluted with MEM medium at 50 µl/well was added, and incubated for 20 minutes.
The neutrophils treated with anti-CD18 antibody were added to the HUVEC plate at 25 µl/well, and incubated for 5 minutes. […]
The OD490 of each well was determined, and the OD490 value of wells containing MEM medium without IL-1β was subtracted from that of each well. The value found in wells containing none of the compounds of the present invention was set to be 100% and the […] of the compound of the invention was assessed as shown in Figure 1. […]

Where only a bound is given, the exact number is not on record here.

By IC50 is commonly meant the midpoint of a concentration-inhibition curve. High values mean weaker potency in that assay, low ones greater potency in that assay. Turning to `COc1cc(CO[C@@H]2O[C@H](CO)[C@@H](O[C@@H]3O[C@H](CO)[C@H](O)[C@H](O[C@]4(C(=O)O)C[C@H](O)[C@@H](NC(C)=O)[C@H]([C@H](O)[C@H](O)CO)O4)[C@H]3O)[C@H](O[C@@H]3O[C@@H](C)[C@@H](O)[C@@H](O)[C@@H]3O)[C@H]2NC(=O)c2ccc3ccccc3c2)cc(OC)c1OC` [Compound 15, 3,4,5-trimethoxybenzyl (5-acetamido-3,5-dideoxy-α-D-glycero-D-galacto-2-nonulopyra nosylonic acid)-(2→3)-O-(β-D-galacto-pyranosyl)-(1→4)-O-[α-L-fucopyranosyl-(1→3)-O]-(2-deoxy-2-naphthamido-β-D-glucopyranoside)], it took 110 µM to reach half-maximal inhibition in assay [1] (IC50). Also, in assay [2], the “inhibited the adhesion of HUVEC to neutrophils” value (from here on “inhibited the adhesion of HUVEC”) is on record as not below 50%.

`CCOCCOCCO[C@@H]1O[C@H](CO)[C@@H](O[C@@H]2O[C@H](CO)[C@H](O)[C@H](O[C@]3(C(=O)O)C[C@H](O)[C@@H](NC(C)=O)[C@H]([C@H](O)[C@H](O)CO)O3)[C@H]2O)[C@H](O[C@@H]2O[C@@H](C)[C@@H](O)[C@@H](O)[C@@H]2O)[C@H]1NC(=O)c1ccc2ccccc2c1` [Compound 31, 2-(2-Ethoxyethoxy)ethyl (5-acetamido-3,5-dideoxy-α-D-glycero-D-galacto-2-nonulopyranosylonic acid)-(2→3)-O-(β-D-galactopyranosyl)-(1→4)-O-[α-L-fucopyranosyl-(1→3)-O]-(2-deoxy-2-naphthamido-β-D-glucopyranoside)] gave a 50% inhibitory concentration (IC50) in assay [1] of 110 µM. For the same compound, the “inhibited the adhesion of HUVEC” value in assay [2] is listed as not below 50%.

`CC(=O)N[C@H]1[C@H]([C@H](O)[C@H](O)CO)O[C@@](O[C@H]2[C@@H](O)[C@@H](CO)O[C@@H](O[C@H]3[C@H](O[C@@H]4O[C@@H](C)[C@@H](O)[C@@H](O)[C@@H]4O)[C@@H](NC(=O)c4ccc5ccccc5c4)[C@H](OCCCCCCCCCO)O[C@@H]3CO)[C@@H]2O)(C(=O)O)C[C@@H]1O` [Compound 35, 9-Hydroxynonyl (5-acetamido-3,5-dideoxy-α-D-glycero-D-galacto-2-nonulopyranosylonic acid)-(2→3)-O-(β-D-galactopyranosyl)-(1→4)-O-[α-L-fucopyranosyl-(1→3)-O ]-(2-deoxy-2-naphthamido-β-D-glucopyranoside)] returned a 50% inhibitory concentration (IC50) in assay [1] of 50 µM. Further, in assay [2], the “inhibited the adhesion of HUVEC” value was not below 50%.
